Results from publication PMC6413952, “Discovery of ABBV-4083, a novel analog of Tylosin A that has potent anti-Wolbachia and anti-filarial activity” (PLoS Neglected Tropical Diseases, 2019).

What was measured:
[1] = tested on: Wolbachia pipientis in Aedes albopictus C6/36 (wAlbB) insect cells; assay: A·WOL Wolbachia-infected Aedes albopictus (C6/36 wAlbB) 7-day cell-based assay, high content imaging; conditions: for activity against Wolbachia: commercially available 16-membered macrolides
Source text: Compounds were screened for anti-Wolbachia activity in vitro in the A·WOL-validated Wolbachia-infected Aedes albopictus (C6/36 wAlbB) 7-day cell-based assay which utilizes a 384-well format assay with high content imaging (HCI) (Operetta) as described previously.
We began our work by selecting a diverse and representative sample of the AbbVie antibiotics collection (129 compounds) for single-point testing against Wolbachia pipientis in an insect cell line. […] While TylA has a long history of use in multiple animal species, it has never been studied in humans; and its activity against Wolbachia has not previously been reported.

[2] = Rat oral pharmacokinetic study (plasma AUC, C8hr); assay type: in vivo, Sprague-Dawley rats; conditions: for C*8hr / C*8hr/ EC50 / AUC*/EC50: PO rats; for AUC* parent / AUC* TylA (metabolite): PO, Sprague-Dawley rats; for C*8hr/ EC50: potency-weighted 8-hr drug level; for AUC*/EC50: potency-weighted AUC; for AUC* TylA (metabolite): primary metabolite TylA; for improvement in plasma drug levels (AUC) over TylA / drug levels relative to 2'-OH partners 5c and 5d: rats
Experimental: PO doses were administrated by oral gavage, IP doses by intraperitoneal injection to BALB/c mice or Sprague-Dawley rats (Charles River Laboratories, USA). Serial blood samples collected into EDTA anticoagulant for plasma concentration analysis were obtained from each animal after dosing. EDTA preserved plasma samples were extracted by protein precipitation with acetonitrile fortified with internal standards. The supernatant was injected into an HPLC-MS/MS system for separation and quantitation. Detection was accomplished using a triple quadrupole mass spectrometer operated either in electrospray or atmospheric chemical ionization (APCI) mode. The area under the plasma concentration-time curve (AUC) was calculated using the linear trapezoidal rule.

[3] = Mouse pharmacokinetic study (plasma levels, IP or PO); assay type: in vivo, BALB/c mice
Experimental: PO doses were administrated by oral gavage, IP doses by intraperitoneal injection to BALB/c mice or Sprague-Dawley rats (Charles River Laboratories, USA). Serial blood samples collected into EDTA anticoagulant for plasma concentration analysis were obtained from each animal after dosing. EDTA preserved plasma samples were extracted by protein precipitation with acetonitrile fortified with internal standards. The supernatant was injected into an HPLC-MS/MS system for separation and quantitation. Detection was accomplished using a triple quadrupole mass spectrometer operated either in electrospray or atmospheric chemical ionization (APCI) mode. The area under the plasma concentration-time curve (AUC) was calculated using the linear trapezoidal rule. […] Plasma levels of TylA in BALB/c mice following IP or PO dosing (100 mg/kg).

MDR-MDCK monolayer = assay type: in vitro ADME, canine; conditions: MDCK-MDR1
Source text: Drug levels in the IP arm of this study were >30-fold higher than those achieved when the drug is given PO. […] Therefore, improving drug absorption by increasing permeability became a primary goal for our lead-optimization studies.

Litomosoides sigmodontis = Litomosoides sigmodontis larval mouse model (worm length); assay type: in vivo, BALB/c mice; conditions: 35 days post-infection
Experimental: As described previously, female BALB/c mice or female jirds were infected at 6–8 weeks of age with L. sigmodontis larvae through the bites of Ornithonyssus bacoti mites. […] One day post infection, mice were dosed IP or PO with TylA (Sigma Aldrich, 200 mg/kg BID x 7 days), doxycycline hyclate (Sigma-Aldrich, 200 mg/kg BID x 14 days), or vehicle using a volume of 10 ml/kg. At 35 days post-infection mice were euthanized using an overdose of isoflurane; worms were recovered from the pleural cavity by pleural lavage, counted, sexed and staged for development into L4 and adult worms based on the difference of the buccal capsule through microscopic examination. Female worms were measured for length (mm) as a marker for development as previously described. Data were distributed in a non-parametric fashion, median and interquartile ranges are presented. For comparing the length of the female worms, the Mann-Whitney-U test was used to calculate statistical differences either against the vehicle treated or gold standard groups.

| Compound | C*8hr [2] | AUC* parent [2] | C*8hr/ EC50 [2] | AUC*/EC50 [2] | AUC* TylA (metabolite) [2] | improvement in plasma drug levels (AUC) over TylA ([2]; oral dosing) | activity against Wolbachia [1] | further results |
| --- | --- | --- | --- | --- | --- | --- | --- | --- |
| CC[C@H]1OC(=O)C[C@@H](O)[C@H](C)[C@@H](O[C@@H]2O[C@H](C)[C@@H](O[C@H]3C[C@@](C)(O)[C@@H](O)[C@H](C)O3)[C@H](N(C)C)[C@H]2O)[C@@H](CC=O)C[C@@H](C)C(=O)/C=C/C(C)=C/[C@@H]1CO[C@@H]1O[C@H](C)[C@@H](O)[C@@H](OC)[C@H]1OC [1 (TylA), Tylosin A] | 0.5 ng/mL per mg/kg | 9.6 ng-hr/ml per mg/kg | 0.02 ng/ml/nM per mg/kg | 0.34 ng-hr/ml/nM per mg/kg | – | – | – | EC50 ([1]; C6/36, Wolbachia-infected insect cells, geometric mean (N), each N a duplicate measurement): 28 nM; drug levels IP arm relative to PO ([3]; BALB/c mice, 100 mg/kg IP or PO): > 30 fold; permeability (MDR-MDCK monolayer): < 0.1X10^-6 cm/sec; length of recovered worms (Litomosoides sigmodontis; 200 mg/kg IP BID x 7 days): notably shorter than controls; length of recovered worms (Litomosoides sigmodontis; 200 mg/kg PO BID x 7 days): minimal response |
| CCCCC(=O)OC1C(OC2C(CC=O)CC(C)C(=O)C=CC(C)=CC(COC3OC(C)C(O)C(OC)C3OC)C(CC)OC(=O)CC(O)C2C)OC(C)C(OC2CC(C)(O)C(O)C(C)O2)C1N(C)C (stereo not shown) [Compound 2c] | 2.5 ng/mL per mg/kg | 58 ng-hr/ml per mg/kg | 0.04 ng/ml/nM per mg/kg | 0.89 ng-hr/ml/nM per mg/kg | 1.2 ng-hr/ml per mg/kg | 6 fold | – | potency-weighted 8-hr drug level (C8hr/dose/EC50) relative to TylA ([2]; oral dosing): doubles; potency-weighted AUC (AUC*/EC50) relative to TylA ([2]; oral dosing): ~ 2.6 fold; metabolic stability of substituent / species observed in plasma ([2]; oral pharmacokinetic study): relatively metabolically stable |
| CCC1OC(=O)CC(O)C(C)C(OC2OC(C)C(OC3CC(C)(O)C(OC(=O)N(CC)CC)C(C)O3)C(N(C)C)C2OC(=O)C(C)C)C(CC=O)CC(C)C(=O)C=CC(C)=CC1COC1OC(C)C(O)C(OC)C1OC (stereo not shown) [Compound 4d] | 30 ng/mL per mg/kg | 420 ng-hr/ml per mg/kg | 1.25 ng/ml/nM per mg/kg | 17.5 ng-hr/ml/nM per mg/kg | 1.4 ng-hr/ml per mg/kg | 40–50 fold | – | drug levels relative to 2'-OH partners 5c and 5d ([2]; oral dosing): more than 10 fold |
| CC[C@H]1OC(=O)C[C@@H](O)[C@H](C)[C@@H](O[C@@H]2O[C@H](C)[C@@H](O[C@H]3C[C@@](C)(O)[C@@H](OCc4ccc(F)cc4)[C@H](C)O3)[C@H](N(C)C)[C@H]2OC(=O)C(C)C)[C@@H](CC=O)C[C@@H](C)C(=O)/C=C/C(C)=C/[C@@H]1CO[C@@H]1O[C@H](C)[C@@H](O)[C@@H](OC)[C@H]1OC [Compound 4e] | 30 ng/mL per mg/kg | 510 ng-hr/ml per mg/kg | 1.03 ng/ml/nM per mg/kg | 17.6 ng-hr/ml/nM per mg/kg | <0.6 ng-hr/ml per mg/kg | 40–50 fold | – | drug levels relative to 2'-OH partners 5c and 5d ([2]; oral dosing): more than 10 fold |
| CCCCC(=O)OC1C(C)OC(OC2C(C)OC(OC3C(CC=O)CC(C)C(=O)C=CC(C)=CC(COC4OC(C)C(O)C(OC)C4OC)C(CC)OC(=O)CC(O)C3C)C(O)C2N(C)C)CC1(C)O (stereo not shown) [Compound 5a] | – | <0.6 ng-hr/ml per mg/kg | – | – | 30 ng-hr/ml per mg/kg | – | – | potency improvement (EC50) over TylA ([1]; EC50 lower than parent TylA): 25 fold; parent ester in plasma ([3]; mice, oral, any time point): no sign of parent is observed; increase in oral drug levels upon 4"-acylation ([3]; mice, measured drug is deacylated metabolite TylA): ~ 3 fold |
| CCC1OC(=O)CC(O)C(C)C(OC2OC(C)C(OC3CC(C)(O)C(OC(=O)C(C)(C)C)C(C)O3)C(N(C)C)C2O)C(CC=O)CC(C)C(=O)C=CC(C)=CC1COC1OC(C)C(O)C(OC)C1OC (stereo not shown) [Compound 5b] | 3.0 ng/mL per mg/kg | 58 ng-hr/ml per mg/kg | 0.56 ng/ml/nM per mg/kg | 10.7 ng-hr/ml/nM per mg/kg | <0.6 ng-hr/ml per mg/kg | 6 fold | – | potency-weighted AUC (AUC*/EC50) relative to TylA ([2]; oral dosing): 30 fold; deacylated product TylA as share of total circulating drug ([2]; rat pharmacokinetic study, oral): < 1% |
| CO[C@@H]1[C@@H](O[C@@H]2O[C@H](C)[C@@H](O[C@H]3C[C@@](C)(O)[C@@H](OC(=O)CC(C)C)[C@H](C)O3)[C@H](N(C)C)[C@H]2O)[C@@H](CC=O)C[C@@H](C)[C@@H](O)/C=C/C=C/C[C@@H](C)OC(=O)C[C@H]1O [leucomycin] | – | – | – | – | – | – | inactive | – |
| CCC(=O)O[C@@H]1CC(=O)O[C@H](C)C/C=C/C=C/[C@H](O)[C@H](C)C[C@H](CC=O)[C@H](O[C@@H]2O[C@H](C)[C@@H](O[C@H]3C[C@@](C)(O)[C@@H](OC(=O)CC)[C@H](C)O3)[C@H](N(C)C)[C@H]2O)[C@H]1OC [midecamycin] | – | – | – | – | – | – | inactive | – |
| josmycin | – | – | – | – | – | – | inactive | – |
| spiramycin | – | – | – | – | – | – | inactive | – |
